Assay results published in ChEMBL document CHEMBL1201862, “PubChem BioAssay data set” (2004).
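Compound exposure: 48 hours, 5 concentrations, 96-well plates. GI50 marks 50% less growth.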 Activity calls are given as the source filed them. Rule as the data show it: active = GI50 up to about 1.1 µM and inactive = higher.

How the values were obtained:
Assay in all cases: NCI anticancer screen, dose series, 48 h
BT-549 = test system: BT-549
DLD-1 = test system: DLD-1
DMS-273 = test system: DMS-273
HOP-18 = test system: HOP-18
KM-20L2 = test system: KM-20L2
M19-MEL = test system: M19-MEL
XF498 = test system: XF498
LXFL 529 = test system: LXFL 529
RXF 631 = test system: RXF 631

In the case of `C=CCn1c(=O)ccn(COCCO)c1=O`, the GI50 (BT-549) was > 100 µM (inactive).

In the case of `CCOC(=O)c1cc2c([N+](=O)[O-])c(NC(C)=O)ccc2s1`, the GI50 (BT-549) was 72.1 µM (inactive).

For `CSCCC(N)P(C)(=O)O` (stereo not given), the GI50 (BT-549) was > 100 µM (inactive).

For `c1cc2nnc1SCCCSc1ccc(nn1)SCCCS2`, the GI50 (BT-549) was 19.9 µM (inactive).

With `CC1CC(NC2CCCCC2)=Nc2ccccc2N1Cc1ccccc1` (stereo not given) the GI50 (BT-549) was 6.05 µM (inactive).

With `c1cc(CN2CCNCCNCCNCC2)cc(CN2CCNCCNCCNCC2)c1` the GI50 (BT-549) was > 100 µM (inactive).

In the case of `CC(Oc1ccccc1Cl)C(=O)NN1C(=O)CSC1c1ccc(Cl)cc1` (stereo not given), the GI50 (BT-549) was 21.3 µM (inactive).

`O=CN1CCC23CC(O)CCC2C1Cc1cc(Oc2nnnn2-c2ccccc2)cc(O)c13` (stereo not given) was tested, and the GI50 (BT-549) was 51.9 µM (inactive).

In the case of `O=NN(CCCl)C(=O)N[C@H]1CC[C@H](C(=O)O)CC1`, the GI50 (DLD-1) was > 100 µM (inactive), the GI50 (DMS-273) was > 100 µM (inactive) and the GI50 (HOP-18) was > 100 µM (inactive). For the same molecule, the GI50 (KM-20L2) was > 100 µM (inactive), the GI50 (M19-MEL) was > 100 µM (inactive) and the GI50 (XF498) was > 100 µM (inactive).

`COC(=O)C(=O)C(C(C)=O)C(=O)C(=O)Nc1ccc(C)cc1C` (stereo not given) was tested, and the GI50 (DLD-1) was > 100 µM (inactive), the GI50 (DMS-273) was > 100 µM (inactive) and the GI50 (KM-20L2) was > 100 µM (inactive). For the same molecule, the GI50 (LXFL 529) was > 100 µM (inactive), the GI50 (M19-MEL) was > 100 µM (inactive) and the GI50 (XF498) was > 100 µM (inactive).

For `CC(C)(C)[Si](OC1CCOC1=O)(c1ccccc1)c1ccccc1` (stereo not given), the GI50 (DLD-1) was 22.2 µM (inactive), the GI50 (HOP-18) was 18.9 µM (inactive) and the GI50 (KM-20L2) was 14.5 µM (inactive). The GI50 (LXFL 529) was 20.7 µM (inactive), the GI50 (M19-MEL) was 19.2 µM (inactive) and the GI50 (RXF 631) was 22.5 µM (inactive). The GI50 (XF498) was 11.1 µM (inactive).

For `NC(=S)N/N=C1\CC(c2ccccc2)Nc2ccccc21` (stereo not given), the GI50 (DLD-1) was 35.2 µM (inactive), the GI50 (DMS-273) was 32.3 µM (inactive) and the GI50 (HOP-18) was 54.6 µM (inactive). For the same molecule, the GI50 (KM-20L2) was 18.5 µM (inactive), the GI50 (LXFL 529) was 33.8 µM (inactive) and the GI50 (M19-MEL) was 39.4 µM (inactive). The GI50 (XF498) was 6.76 µM (inactive).

For `Cc1cc(O)c(C(c2cccnc2)c2c(O)cc(C)[nH]c2=O)c(=O)[nH]1`, the GI50 (BT-549) was > 100 µM (inactive).

With `CCOP(=Nc1ccc(N(C)C)cc1)(OCC)OCC` the GI50 (BT-549) was > 100 µM (inactive).

For `COc1c(Cl)cc(Cl)cc1S(=O)O`, the GI50 (DLD-1) was > 100 µM (inactive), the GI50 (LXFL 529) was > 100 µM (inactive) and the GI50 (M19-MEL) was > 100 µM (inactive). For the same molecule, the GI50 (XF498) was > 100 µM (inactive).

For `C=C1CC(OC)(C(O)C(=O)N[C@H]2OCO[C@H]3C2O[C@H](C[C@@H](COC)OC)C(C)(C)C3OC)O[C@H](C)[C@@H]1C` (stereo not given in full), the GI50 (DLD-1) was < 0.00482 µM (active), the GI50 (DMS-273) was < 0.00482 µM (active) and the GI50 (HOP-18) was < 0.00482 µM (active). The GI50 (KM-20L2) was < 0.00482 µM (active), the GI50 (M19-MEL) was < 0.00482 µM (active) and the GI50 (XF498) was < 0.00482 µM (active).

In the case of `C=C1C(=O)C[C@@]23CCC[C@@]12CC(OCOC)C3` (stereo not given in full), the GI50 (DLD-1) was 1.84 µM (inactive), the GI50 (DMS-273) was 2.4 µM (inactive) and the GI50 (HOP-18) was 3.6 µM (inactive). For the same molecule, the GI50 (KM-20L2) was 2.83 µM (inactive), the GI50 (M19-MEL) was 3.59 µM (inactive) and the GI50 (XF498) was 3.12 µM (inactive).

With `Cc1cccc(/C=C2\CCCc3ccccc3C2=O)c1` the GI50 (BT-549) was 24.3 µM (inactive).

In the case of `NC(=O)c1ncn2c1NC(=O)CC2`, the GI50 (DLD-1) was > 100 µM (inactive), the GI50 (DMS-273) was > 100 µM (inactive) and the GI50 (HOP-18) was > 100 µM (inactive). The GI50 (KM-20L2) was > 100 µM (inactive), the GI50 (M19-MEL) was > 100 µM (inactive) and the GI50 (XF498) was > 100 µM (inactive).

For `NC(=O)c1csc(C2O[C@@H](COP(=O)(O)OP(=O)(O)OC[C@H]3OC(n4cnc5c(N)ncnc54)[C@H](O)[C@@H]3O)[C@H](O)[C@@H]2O)n1` (stereo not given in full), the GI50 (DLD-1) was 45.2 µM (inactive), the GI50 (DMS-273) was 99.5 µM (inactive) and the GI50 (HOP-18) was > 100 µM (inactive). For the same molecule, the GI50 (KM-20L2) was > 100 µM (inactive), the GI50 (LXFL 529) was > 100 µM (inactive) and the GI50 (XF498) was 33.2 µM (inactive).
